From patent US6391566B1, “Ionotropic human glutamate receptor subunit NR3” (NPS Allelix Corporation, priority 1992, dated 2002) come the findings set out here.

What all share (type): cell-based
Assay [1] deals with T1, NR3-1/NMDAR1-3C heteromeric complex (Homo sapiens, UniProt Q05586+Q13224).
T1 construct: expressed in transfected cells; host or cells: HEK293 (transient, lipofectamine)
The assay is described as follows: Whole-cell voltage-clamp recording of NMDA-evoked currents in transiently transfected HEK293 cells (heteromeric expression). The note with it: 60 μM NMDA. On the procedure:
(§1) For transient expression, HEK293 cells were transfected with approximately 0.4 μg DNA (as pcDNA1-Amp/hNR3 or pcDNA1-Amp/hNR1-3C) per 10^5 HEK293 cells, by lipofectamine-mediated DNA transfection according to the manufacturer's (Life Technologies Inc., Gaithersburg, Md.) specifications. In coexpression experiments, i.e. for heteromeric expression of NR3-1 and NMDAR1-3C, the HEK293 cells were similarly transfected with 0.8 μg of a DNA mixture containing pcDNA1-Amp/hNR3 and pcDNA1-Amp/hNR1-3C. Briefly, HEK293 cells were plated at a density of 10^5 cells/dish and then grown for 24 hours in 10% FBS-supplemented MEM medium (Life Technologies Inc., Gaithersburg, Md.). The medium was then removed and cells were washed in OPTI-MEM I medium (Life Technologies Inc.) lacking FBS, prior to transfection. A transfection solution (100 μl ) containing 2-4 μl of lipofectamine and DNA was then applied to the cells. After incubation for 4 hours at 37° C., cells were washed as previously described and then allowed to grow for 48 hours in 10% FBS-supplemented MEM medium containing 50 μM DL-AP5 (2-amino-5-phosphonopentanoic acid) and 50 μM 7-chlorokyneurinic acid prior to electrophysiological recording. […]

Assay [2] has as its target T2, NR3 (Homo sapiens, UniProt Q13224).
T2 construct: expressed in transfected cells; host or cells: HEK293 (transient, lipofectamine)
The assay is described as follows: Whole-cell voltage-clamp recording of NMDA-evoked currents in HEK293 cells transfected with NR3 alone. The conditions noted are these: 60 μM NMDA; HEK293 cells transiently transfected with NR3 alone; FIG. 10. On the procedure: as §1

For assay [3], the target named is T3, NMDAR1-3C (Homo sapiens, UniProt Q05586).
T3 construct: expressed in transfected cells; host or cells: HEK293 (transient, lipofectamine)
The assay is described as follows: Whole-cell voltage-clamp recording of NMDA-evoked currents in HEK293 cells transfected with NMDAR1-3C alone. The note with it: 60 μM NMDA; HEK293 cells transiently transfected with NMDAR1-3C alone; FIG. 10. The method, then: as §1

Molecules are shown by their SMILES.

T1 sequence (Q13224 27-1484, other chains not shown): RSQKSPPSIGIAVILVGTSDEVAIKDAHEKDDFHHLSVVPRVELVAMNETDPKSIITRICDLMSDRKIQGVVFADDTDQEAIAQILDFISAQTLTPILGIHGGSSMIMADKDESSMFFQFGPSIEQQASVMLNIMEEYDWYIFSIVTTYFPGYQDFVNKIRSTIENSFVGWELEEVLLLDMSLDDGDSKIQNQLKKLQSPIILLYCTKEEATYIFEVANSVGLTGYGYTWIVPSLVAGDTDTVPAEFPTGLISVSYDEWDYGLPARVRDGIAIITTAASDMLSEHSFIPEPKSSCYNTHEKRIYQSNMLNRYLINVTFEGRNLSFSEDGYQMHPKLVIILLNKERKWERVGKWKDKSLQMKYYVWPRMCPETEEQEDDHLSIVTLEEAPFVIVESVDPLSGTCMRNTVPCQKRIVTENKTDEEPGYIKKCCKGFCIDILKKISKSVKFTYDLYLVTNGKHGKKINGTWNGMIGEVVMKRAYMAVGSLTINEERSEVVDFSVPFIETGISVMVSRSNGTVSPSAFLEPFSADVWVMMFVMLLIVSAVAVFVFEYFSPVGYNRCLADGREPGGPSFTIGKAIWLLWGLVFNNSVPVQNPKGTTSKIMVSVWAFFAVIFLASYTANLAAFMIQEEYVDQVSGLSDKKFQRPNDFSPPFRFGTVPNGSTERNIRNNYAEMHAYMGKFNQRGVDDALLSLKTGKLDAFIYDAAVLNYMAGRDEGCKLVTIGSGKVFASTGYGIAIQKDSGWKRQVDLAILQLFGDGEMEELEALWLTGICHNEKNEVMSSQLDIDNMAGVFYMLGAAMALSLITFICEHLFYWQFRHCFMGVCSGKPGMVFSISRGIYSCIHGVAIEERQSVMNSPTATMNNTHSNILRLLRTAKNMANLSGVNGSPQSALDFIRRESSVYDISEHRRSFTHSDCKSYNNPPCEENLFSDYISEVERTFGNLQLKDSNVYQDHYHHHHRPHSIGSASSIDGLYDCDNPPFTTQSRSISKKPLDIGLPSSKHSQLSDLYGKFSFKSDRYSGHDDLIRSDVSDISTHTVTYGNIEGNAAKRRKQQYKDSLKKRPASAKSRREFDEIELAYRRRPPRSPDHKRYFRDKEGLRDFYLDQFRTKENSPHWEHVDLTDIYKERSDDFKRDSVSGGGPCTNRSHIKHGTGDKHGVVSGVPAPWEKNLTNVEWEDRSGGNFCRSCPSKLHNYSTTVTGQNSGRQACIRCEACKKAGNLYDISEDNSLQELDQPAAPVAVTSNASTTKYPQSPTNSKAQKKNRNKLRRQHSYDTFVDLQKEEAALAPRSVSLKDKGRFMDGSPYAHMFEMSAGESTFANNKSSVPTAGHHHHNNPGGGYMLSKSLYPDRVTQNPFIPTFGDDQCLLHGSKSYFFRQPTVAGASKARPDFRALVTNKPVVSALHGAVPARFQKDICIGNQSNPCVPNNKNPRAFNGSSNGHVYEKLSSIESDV
T2 sequence (Q13224 27-1484): as the sequence (Q13224 27-1484, other chains not shown) above

Turning to `[Cl-].[Cl-].[Mg+2]` [MgCl2], in assay [1] (1 mM MgCl2, HEK293 cells transfected with both NR3-1 and NMDAR1-3C), the “block of NMDA-induced currents” value is “blocked”.

On to `CN[C@H](CC(=O)O)C(=O)O` [NMDA, N-methyl-D-aspartate], for which the NMDA-induced depolarizations result is on record as “No NMDA-induced depolarizations were observed” in assay [2]; “No NMDA-induced depolarizations were observed” in assay [3]; “NMDA-induced depolarizations were, however, observed” in assay [1] (HEK293 cells transiently transfected with both NR3-1 and NMDAR1-3C, FIG. 10).
